For this assay, the target named is T1, human TLR7 (Homo sapiens, UniProt Q9NYK1).
T1 construct: host or cells: HEK293 (HEK-Blue hTLR7)
T1 sequence (Q9NYK1 27-1049): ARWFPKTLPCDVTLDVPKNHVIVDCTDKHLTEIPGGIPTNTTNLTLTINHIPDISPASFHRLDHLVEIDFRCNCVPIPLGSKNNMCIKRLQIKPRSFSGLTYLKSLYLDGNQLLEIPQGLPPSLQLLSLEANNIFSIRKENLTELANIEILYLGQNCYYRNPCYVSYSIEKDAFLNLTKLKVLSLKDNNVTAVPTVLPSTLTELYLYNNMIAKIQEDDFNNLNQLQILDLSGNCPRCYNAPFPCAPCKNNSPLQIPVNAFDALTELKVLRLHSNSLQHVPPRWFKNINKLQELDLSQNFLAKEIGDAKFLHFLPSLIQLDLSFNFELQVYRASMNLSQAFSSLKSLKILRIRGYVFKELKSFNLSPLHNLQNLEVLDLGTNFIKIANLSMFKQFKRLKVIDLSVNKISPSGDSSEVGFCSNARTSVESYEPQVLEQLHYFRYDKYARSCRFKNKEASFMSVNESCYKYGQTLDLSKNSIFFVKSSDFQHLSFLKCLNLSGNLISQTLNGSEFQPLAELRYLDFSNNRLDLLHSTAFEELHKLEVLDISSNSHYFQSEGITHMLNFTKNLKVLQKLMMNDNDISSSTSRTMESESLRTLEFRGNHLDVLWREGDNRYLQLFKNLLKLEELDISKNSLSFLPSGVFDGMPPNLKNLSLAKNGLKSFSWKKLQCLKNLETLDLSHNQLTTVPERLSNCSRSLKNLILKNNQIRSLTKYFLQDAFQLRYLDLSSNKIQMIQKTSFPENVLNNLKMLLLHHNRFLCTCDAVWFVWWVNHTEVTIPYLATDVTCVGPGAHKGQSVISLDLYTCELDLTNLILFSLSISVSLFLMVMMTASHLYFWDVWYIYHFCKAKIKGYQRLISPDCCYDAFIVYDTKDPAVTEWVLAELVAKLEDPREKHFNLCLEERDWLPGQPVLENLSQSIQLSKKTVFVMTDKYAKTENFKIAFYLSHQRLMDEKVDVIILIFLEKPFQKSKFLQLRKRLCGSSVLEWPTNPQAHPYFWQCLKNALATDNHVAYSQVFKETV
Description: HEK293-Blue-hTLR-7 cells assay (SEAP reporter, R848 stimulation). The assay is classed as cell-based. As to conditions: HEK293-Blue-hTLR7 cells, R848, 20 hrs; read-out: HEK/hTLR7 IC50. Summed up:
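Stable HEK293-Blue-hTLR7 cells (NF-κB/AP-1-driven SEAP reporter) were co-incubated with serially diluted compound (1% DMSO final) and R848 for 20 hrs at 37 °C. Supernatant SEAP was developed with QUANTI-Blue substrate for 2 hrs at 37 °C and absorbance read at 620–655 nm; antagonism seen as reduced reporter signal.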
Turning to `Cc1cc(N2Cc3ccc(N4CCOC5(CNC5)C4)nc3[C@@H](C)C2)c2cnn(C)c2n1` [Example 70, 8-[(8S)-6-(1,6-dimethylpyrazolo[3,4-b]pyridin-4-yl)-8-methyl-7,8-dihydro-5H-1,6-naphthyridin-2-yl]-5-oxa-2,8-diazaspiro[3.5]nonane], the IC50 came out at 36 nM. Under `Cc1cc(N2Cc3ccc(N4CCNCC4)nc3[C@H](C)C2)c2cnn(C)c2n1` [Example 72, (8R)-6-(1,6-dimethylpyrazolo[3,4-b]pyridin-4-yl)-8-methyl-2-piperazin-1-yl-7,8-dihydro-5H-1,6-naphthyridine] stands 21 nM; under `CO[C@H]1CN(c2cc3c(cn2)CN(c2cc(C)nc4c2cnn4C)C[C@@H]3C)CC[C@@H]1N` [Example 73, (3S,4S)-3-methoxy-1-[(5R)-7-(1,6-dimethylpyrazolo[3,4-b]pyridin-4-yl)-5-methyl-6,8-dihydro-5H-2,7-naphthyridin-3-yl]piperidin-4-amine], 4 nM; under `Cc1cc(N2Cc3cnc(N4CCNCC4)cc3[C@@H](C)C2)c2cnn(C)c2n1` [Example 74, (4R)-2-(1,6-dimethylpyrazolo[3,4-b]pyridin-4-yl)-4-methyl-6-piperazin-1-yl-3,4-dihydro-1H-2,7-naphthyridine], 6 nM.

For `Cc1cc(N2Cc3cnc(N4CCNC5(CC5)C4)cc3[C@@H](C)C2)c2cnn(C)c2n1` [Example 75, (4R)-6-(4,7-diazaspiro[2.5]octan-7-yl)-2-(1,6-dimethylpyrazolo[3,4-b]pyridin-4-yl)-4-methyl-3,4-dihydro-1H-2,7-naphthyridine], the IC50 turned out to be 10 nM. For `Cc1cc(N2Cc3cnc(O[C@@H]4C[C@H]5CNCCN5C4)cc3[C@@H](C)C2)c2cnn(C)c2n1` [Example 76, (4R)-2-(1,6-dimethylpyrazolo[3,4-b]pyridin-4-yl)-4-methyl-6-[[(7R,8aS)-1,2,3,4,6,7,8,8a-octahydropyrrolo[1,2-a]pyrazin-7-yl]oxy]-3,4-dihydro-1H-2,7-naphthyridine], the IC50 came out at 19 nM. In the case of `Cc1cc(N2Cc3cnc(OCCN4CCNCC4)cc3[C@@H](C)C2)c2cnn(C)c2n1` [Example 77, (4R)-2-(1,6-dimethylpyrazolo[3,4-b]pyridin-4-yl)-4-methyl-6-(2-piperazin-1-ylethoxy)-3,4-dihydro-1H-2,7-naphthyridine], the IC50 is 19 nM.

Regarding `CO[C@@H]1CN(c2cc3c(cn2)CN(c2cc(C)nc4c2cnn4C)C[C@@H]3C)C[C@H]1N` [Example 78, (3R,4R)-4-methoxy-1-[(5R)-7-(1,6-dimethylpyrazolo[3,4-b]pyridin-4-yl)-5-methyl-6,8-dihydro-5H-2,7-naphthyridin-3-yl]pyrrolidin-3-amine], the IC50 was 45 nM. Under `Cc1cc(N2Cc3cnc(N4CC5(CNCCO5)C4)cc3[C@@H](C)C2)c2cnn(C)c2n1` [Example 79, 2-[(5R)-7-(1,6-dimethylpyrazolo[3,4-b]pyridin-4-yl)-5-methyl-6,8-dihydro-5H-2,7-naphthyridin-3-yl]-5-oxa-2,8-diazaspiro[3.5]nonane] stands 19 nM; under `Cc1cc(N2Cc3cnc(N4CC[C@@H](N)[C@H](F)C4)cc3[C@@H](C)C2)c2cnn(C)c2n1` [Example 80, (3R,4R)-3-fluoro-1-[(5R)-7-(1,6-dimethylpyrazolo[3,4-b]pyridin-4-yl)-5-methyl-6,8-dihydro-5H-2,7-naphthyridin-3-yl]piperidin-4-amine], 12 nM.

Turning to `COC[C@H]1CN(c2cc3c(cn2)CN(c2cc(C)nc4c2cnn4C)C[C@@H]3C)CCN1` [Example 81, (4R)-2-(1,6-dimethylpyrazolo[3,4-b]pyridin-4-yl)-4-methyl-6-[(3R)-3-(methoxymethyl)piperazin-1-yl]-3,4-dihydro-1H-2,7-naphthyridine], the IC50 came to 41 nM.

Source of the values: patent publication US20240317735A1, “HYDROISOQUINOLINE OR HYDRONAPHTHYRIDINE COMPOUNDS FOR THE TREATMENT OF AUTOIMMUNE DISEASE” (Hoffmann-La Roche Inc., priority 2020, published 2024).
